Bridge positions count the residues as written; N and C are the ends. Square brackets hold non-standard residues; d marks the D form. Peptide text beside a SMILES is read from it. * marks the point of attachment. hPhe(3,5-F2-4-CF3) = N[C@@H](CCc1cc(F)c(C(F)(F)F)c(F)c1)C(=O)O; hPhe(3-Cl-4-CF3) = N[C@@H](CCc1ccc(C(F)(F)F)c(Cl)c1)C(=O)O; hPhe(3-F,4-CF3) = N[C@@H](CCc1ccc(C(F)(F)F)c(F)c1)C(=O)O; hPhe(4-CF3) = N[C@@H](CCc1ccc(C(F)(F)F)cc1)C(=O)O; 3Oxa8azabicyclo(3.2.1)octane = C1CC2COCC1N2*; NMePhe(4-Cl) = CN[C@@H](Cc1ccc(Cl)cc1)C(=O)O; NMePhe(4-Me) = CN[C@@H](Cc1ccc(C)cc1)C(=O)O; NMeAla(cPent) = CN[C@@H](CC1CCCC1)C(=O)O; NMeGly(cPent) = CN[C@H](C(=O)O)C1CCCC1; NMeCha = CN[C@@H](CC1CCCCC1)C(=O)O; cisHyp = O=C(O)[C@@H]1C[C@H](O)CN1; NMehLeu = CN[C@@H](CCC(C)C)C(=O)O; Hyp = O=C(O)[C@@H]1C[C@@H](O)CN1; NEtLeu = CCN[C@@H](CC(C)C)C(=O)O; NMeChg = CN[C@H](C(=O)O)C1CCCCC1; NMeF = CN[C@@H](Cc1ccccc1)C(=O)O; NMeI = CC[C@H](C)[C@H](NC)C(=O)O; Piperidide(4-Me) = CC1CCN(*)CC1; NMeD = CN[C@@H](CC(=O)O)C(=O)O; NMeL = CN[C@@H](CC(C)C)C(=O)O; NMeV = CN[C@H](C(=O)O)C(C)C; d(β3hA) = C[C@@H](N)CC(=O)O; NMeS = CN[C@@H](CO)C(=O)O; Morpholide = C1CN(*)CCO1; NMeA = CN[C@@H](C)C(=O)O; Piperidide = C1CCN(*)CC1; Ac5c = NC1(C(=O)O)CCCC1; Aze = O=C(O)[C@@H]1CCN1; X53 = CC1(C)CCN(*)C1; NEtG = CCNCC(=O)O; Sar = CNCC(=O)O; Propyl = CCC*
target: protein-protein interaction between Kras and SOS1 (biotin-tagged human Kras loaded with GDP, His-tagged human SOS1) (Homo sapiens (Human), UniProt P01116, G12D); experiment: Protein-protein interaction inhibition between Kras and SOS1 (KrasG12D-SOS PPI) using AlphaScreen; assay type: biochemical; settings: AlphaScreen; biotin-tagged human Kras loaded with GDP, His-tagged human SOS1; read-out: KRAS G12D-SOS PPI IC50;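 further: kras produced in E. coli, Ni-coupled donor beads and streptavidin acceptor beads, excitation 680 nm with emission detected at 520–620 nm via singlet oxygen transfer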

Compound | IC50
CC[C@H](C)[C@@H]1NC(=O)[C@H](CC(C)C)N(C)C(=O)C[C@@H](C(=O)N2CCC(C)(C)C2)NC(=O)[C@H](C(C)C)N(C)C(=O)C2(CCCC2)NC(=O)[C@@H]2CCCN2C(=O)[C@H](CCc2ccc(C(F)(F)F)c(Cl)c2)NC(=O)CN(C)C(=O)[C@H](CC2CCCCC2)N(C)C(=O)[C@@H]2CCN2C(=O)[C@H](C)N(C)C1=O [Compound 1280] ([NMeL]I[NMeA][Aze][NMeCha][Sar][hPhe(3-Cl-4-CF3)]P[Ac5c][NMeV]D-X53; lactam N-11) | 74 nM
CC[C@H](C)[C@@H]1NC(=O)[C@H](CC(C)C)N(CC)C(=O)C[C@@H](C(=O)N(C)C)N(C)C(=O)[C@H]([C@@H](C)CC)N(C)C(=O)C2(CCCC2)NC(=O)[C@@H]2CCCN2C(=O)[C@H](CCc2ccc(C(F)(F)F)c(Cl)c2)NC(=O)CN(C)C(=O)[C@H](Cc2ccc(C)cc2)N(C)C(=O)[C@@H]2CCN2C(=O)[C@H](C)NC1=O [Compound 1287] ([NEtLeu]IA[Aze][NMePhe(4-Me)][Sar][hPhe(3-Cl-4-CF3)]P[Ac5c][NMeI][NMeD]-NMe2; lactam N-11) | 1.1 nM
CC[C@H](C)[C@@H]1NC(=O)[C@H](CC(C)C)N(C)C(=O)C[C@@H](C(=O)N2CCC(C)CC2)N(C)C(=O)[C@H](C(C)C)N(C)C(=O)C2(CCCC2)NC(=O)[C@@H]2CCCN2C(=O)[C@H](CCc2ccc(C(F)(F)F)c(Cl)c2)NC(=O)CN(C)C(=O)[C@H](CC2CCCCC2)N(C)C(=O)[C@@H]2CCN2C(=O)[C@H](C)N(C)C1=O [Compound 1291] ([NMeL]I[NMeA][Aze][NMeCha][Sar][hPhe(3-Cl-4-CF3)]P[Ac5c][NMeV][NMeD]-{Piperidide(4-Me)}; lactam N-11) | 5.4 nM
CC[C@H](C)[C@@H]1NC(=O)[C@H](CCC(C)C)N(C)C(=O)C[C@@H](C(=O)N(C)C)N(C)C(=O)[C@H](C2CCCC2)N(C)C(=O)C2(CCCC2)NC(=O)[C@@H]2CCCN2C(=O)[C@H](CCc2ccc(C(F)(F)F)c(F)c2)NC(=O)CN(C)C(=O)[C@H](CC2CCCCC2)N(C)C(=O)[C@@H]2CCN2C(=O)[C@H](C)NC1=O [Compound 1292] ([NMehLeu]IA[Aze][NMeCha][Sar][hPhe(3-F,4-CF3)]P[Ac5c][NMeGly(cPent)][NMeD]-NMe2; lactam N-11) | 2 nM
CCCOC[C@H]1C(=O)N(C)CC(=O)N[C@@H](CCc2ccc(C(F)(F)F)c(Cl)c2)C(=O)N2CCC[C@H]2C(=O)NC2(CCCC2)C(=O)N(C)[C@@H](C2CCCC2)C(=O)N(C)[C@H](C(=O)N2C3CCC2COC3)CC(=O)N(C)[C@@H](CC(C)C)C(=O)N[C@@H]([C@@H](C)CC)C(=O)N[C@@H](C)C(=O)N2CC[C@H]2C(=O)N1C [Compound 1299] ([NMeL]IA[Aze][NMeS](Propyl)[Sar][hPhe(3-Cl-4-CF3)]P[Ac5c][NMeGly(cPent)][NMeD]-{3Oxa8azabicyclo(3.2.1)octane}; lactam N-11) | 3.6 nM
CC[C@H](C)[C@@H]1NC(=O)[C@H](CC(C)C)N(C)C(=O)C[C@@H](C(=O)N2CCOCC2)N(C)C(=O)[C@H](C2CCCC2)N(C)C(=O)C2(CCCC2)NC(=O)[C@@H]2CCCN2C(=O)[C@H](CCc2ccc(C(F)(F)F)c(Cl)c2)NC(=O)CN(C)C(=O)[C@H](C2CCCC2)N(C)C(=O)[C@@H]2CCN2C(=O)[C@H](C)NC1=O [Compound 1309] ([NMeL]IA[Aze][NMeGly(cPent)][Sar][hPhe(3-Cl-4-CF3)]P[Ac5c][NMeGly(cPent)][NMeD]-Morpholide; lactam N-11) | 0.85 nM
CCCOC[C@H]1C(=O)N(C)CC(=O)N[C@@H](CCc2ccc(C(F)(F)F)c(Cl)c2)C(=O)N2CCC[C@H]2C(=O)NC2(CCCC2)C(=O)N(C)[C@@H](C2CCCC2)C(=O)N(C)[C@H](C(=O)N2C3CCC2COC3)CC(=O)N(C)[C@@H](CCC(C)C)C(=O)N[C@@H]([C@@H](C)CC)C(=O)N[C@@H](C)C(=O)N2CC[C@H]2C(=O)N1C [Compound 1326] ([NMehLeu]IA[Aze][NMeS](Propyl)[Sar][hPhe(3-Cl-4-CF3)]P[Ac5c][NMeGly(cPent)][NMeD]-{3Oxa8azabicyclo(3.2.1)octane}; lactam N-11) | 5.1 nM
CC[C@H](C)[C@@H]1NC(=O)[C@H](CC(C)C)N(C)C(=O)C[C@@H](C)NC(=O)[C@H](C2CCCC2)N(C)C(=O)C2(CCCC2)NC(=O)[C@@H]2CCCN2C(=O)[C@H](CCc2ccc(C(F)(F)F)c(Cl)c2)NC(=O)CN(C)C(=O)[C@H](Cc2ccc(C)cc2)N(C)C(=O)[C@@H]2CCN2C(=O)[C@H](C)NC1=O [Compound 1331] (cyclo(A[Aze][NMePhe(4-Me)][Sar][hPhe(3-Cl-4-CF3)]P[Ac5c][NMeGly(cPent)][d(β3hA)][NMeL]I)) | 1.1 nM
CC[C@H](C)[C@@H]1NC(=O)[C@H](CC(C)C)N(C)C(=O)C[C@@H](C(=O)N2CCCCC2)N(C)C(=O)[C@H](C(C)C)N(C)C(=O)C2(CCCC2)NC(=O)[C@@H]2CCCN2C(=O)[C@H](CCc2ccc(C(F)(F)F)c(Cl)c2)NC(=O)CN(C)C(=O)[C@H](CC2CCCCC2)N(C)C(=O)[C@@H]2CCN2C(=O)[C@H](C)NC1=O [Compound 1334] ([NMeL]IA[Aze][NMeCha][Sar][hPhe(3-Cl-4-CF3)]P[Ac5c][NMeV][NMeD]-Piperidide; lactam N-11) | 3 nM
CCCOC[C@H]1C(=O)N(CC)CC(=O)N[C@@H](CCc2ccc(C(F)(F)F)c(Cl)c2)C(=O)N2CCC[C@H]2C(=O)NC2(CCCC2)C(=O)N(C)[C@@H](C2CCCC2)C(=O)N(C)[C@H](C(=O)N2C3CCC2COC3)CC(=O)N(C)[C@@H](CC(C)C)C(=O)N[C@@H]([C@@H](C)CC)C(=O)N(C)[C@@H](C)C(=O)N2CC[C@H]2C(=O)N1C [Compound 1338] ([NMeL]I[NMeA][Aze][NMeS](Propyl)[NEtG][hPhe(3-Cl-4-CF3)]P[Ac5c][NMeGly(cPent)][NMeD]-{3Oxa8azabicyclo(3.2.1)octane}; lactam N-11) | 17 nM
CC[C@H](C)[C@@H]1NC(=O)[C@H](CC2CCCC2)N(C)C(=O)C[C@@H](C(=O)N(C)C)N(C)C(=O)[C@H](C2CCCC2)N(C)C(=O)C2(CCCC2)NC(=O)[C@@H]2CCCN2C(=O)[C@H](CCc2ccc(C(F)(F)F)c(F)c2)NC(=O)CN(C)C(=O)[C@H](CC2CCCCC2)N(C)C(=O)[C@@H]2CCN2C(=O)[C@H](C)NC1=O [Compound 1340] ([NMeAla(cPent)]IA[Aze][NMeCha][Sar][hPhe(3-F,4-CF3)]P[Ac5c][NMeGly(cPent)][NMeD]-NMe2; lactam N-11) | 1.2 nM
CC[C@H](C)[C@@H]1NC(=O)[C@H](CC(C)C)N(C)C(=O)C[C@@H](C(=O)N2CCCCC2)NC(=O)[C@H](C(C)C)N(C)C(=O)C2(CCCC2)NC(=O)[C@@H]2CCCN2C(=O)[C@H](CCc2ccc(C(F)(F)F)c(Cl)c2)NC(=O)CN(C)C(=O)[C@H](CC2CCCCC2)N(C)C(=O)[C@@H]2CCN2C(=O)[C@H](C)N(C)C1=O [Compound 1353] ([NMeL]I[NMeA][Aze][NMeCha][Sar][hPhe(3-Cl-4-CF3)]P[Ac5c][NMeV]D-Piperidide; lactam N-11) | 11 nM
CCCOC[C@H]1C(=O)N(C)CC(=O)N[C@@H](CCc2cc(F)c(C(F)(F)F)c(F)c2)C(=O)N2CCC[C@H]2C(=O)NC2(CCCC2)C(=O)N(C)[C@@H](C2CCCC2)C(=O)N(C)[C@H](C(=O)N2C3CCC2COC3)CC(=O)N(C)[C@@H](CC(C)C)C(=O)N[C@@H]([C@@H](C)CC)C(=O)N(C)[C@@H](C)C(=O)N2CC[C@H]2C(=O)N1C [Compound 1355] ([NMeL]I[NMeA][Aze][NMeS](Propyl)[Sar][hPhe(3,5-F2-4-CF3)]P[Ac5c][NMeGly(cPent)][NMeD]-{3Oxa8azabicyclo(3.2.1)octane}; lactam N-11) | 3.2 nM
CCCOC[C@H]1C(=O)N(C)CC(=O)N[C@@H](CCc2ccc(C(F)(F)F)c(Cl)c2)C(=O)N2CCC[C@H]2C(=O)NC2(CCCC2)C(=O)N(C)[C@@H](C2CCCC2)C(=O)N(C)[C@H](C(=O)N2C3CCC2COC3)CC(=O)N(C)[C@@H](CC2CCCC2)C(=O)N[C@@H]([C@@H](C)CC)C(=O)N[C@@H](C)C(=O)N2CC[C@H]2C(=O)N1C [Compound 1359] ([NMeAla(cPent)]IA[Aze][NMeS](Propyl)[Sar][hPhe(3-Cl-4-CF3)]P[Ac5c][NMeGly(cPent)][NMeD]-{3Oxa8azabicyclo(3.2.1)octane}; lactam N-11) | 6.2 nM
CC[C@H](C)[C@@H]1NC(=O)[C@H](C)N(C)C(=O)C[C@@H](C)NC(=O)[C@H](CC(C)C)N(C)C(=O)[C@H](Cc2ccccc2)N(C)C(=O)[C@@H]2C[C@H](O)CN2C(=O)[C@H](CCc2ccc(C(F)(F)F)cc2)NC(=O)CN(C)C(=O)[C@H](Cc2ccc(Cl)cc2)N(C)C(=O)CN(C)C(=O)CN(C)C1=O [Compound 1373] (cyclo(I[Sar][Sar][NMePhe(4-Cl)][Sar][hPhe(4-CF3)][cisHyp][NMeF][NMeL][d(β3hA)][NMeA])) | 7.7 nM
CC[C@H](C)[C@@H]1NC(=O)[C@H](CC(C)C)N(C)C(=O)C[C@@H](C(=O)N2CCCCC2)N(C)C(=O)[C@H](C2CCCCC2)N(C)C(=O)C2(CCCC2)NC(=O)[C@@H]2C[C@H](O)CN2C(=O)[C@H](CCc2ccc(C(F)(F)F)c(Cl)c2)NC(=O)CN(C)C(=O)[C@H](CC2CCCCC2)N(C)C(=O)CN(C)C(=O)CN(C)C1=O [Compound 1374, (3S,9S,18S,21S,25S,28S,34S,36S)-3-[2-[3-chloro-4-(trifluoromethyl)phenyl]ethyl]-28-cyclohexyl-9-(cyclohexylmethyl)-36-hydroxy-21-isobutyl-7,10,13,16,22,26,29-heptamethyl-18-[(1S)-1-methylpropyl]-25-(piperidine-1-carbonyl)spiro[1,4,7,10,13,16,19,22,26,29,32-undecazabicyclo[32.3.0]heptatriacontane-31,1′-cyclopentane]-2,5,8,11,14,17,20,23,27,30,33-undecone] ([NMeL]I[Sar][Sar][NMeCha][Sar][hPhe(3-Cl-4-CF3)][cisHyp][Ac5c][NMeChg][NMeD]-Piperidide; lactam N-11) | 0.54 nM
CC[C@H](C)[C@@H]1NC(=O)[C@H](C)N(C)C(=O)C[C@@H](C)NC(=O)[C@H](CC(C)C)N(C)C(=O)[C@H](Cc2ccccc2)N(C)C(=O)[C@@H]2C[C@@H](O)CN2C(=O)[C@H](CCc2ccc(C(F)(F)F)cc2)NC(=O)CN(C)C(=O)[C@H](Cc2ccc(Cl)cc2)N(C)C(=O)CN(C)C(=O)CN(C)C1=O [Compound 1375] (cyclo([Hyp][NMeF][NMeL][d(β3hA)][NMeA]I[Sar][Sar][NMePhe(4-Cl)][Sar][hPhe(4-CF3)])) | 9.3 nM

Reference: patent US20240148821A1, “PHARMACEUTICAL USE OF CYCLIC PEPTIDE COMPOUND” (CHUGAI SEIYAKU KABUSHIKI KAISHA, priority 2021, published 2024)
